Measurements taken from US6451800B1, “Phenylpiperazine derivatives as integrin αvβ3 antagonists” (Meiji Seika Kaisha, Ltd., priority 1998, dated 2002).

Key:
GP IIb/IIIa = GP IIb/IIIa (Homo sapiens, UniProt P05106+P08514); test: GP IIb/IIIa antagonistic activity (method of Pharmacological Test 2 in WO 94/21599); type: binding
Description: (§1) GP IIb/IIIa Antagonistic Activity and Human Platelet Aggregation Inhibitory Activity
GP IIb/IIIa antagonistic activity was measured for the compounds according to the present invention. The measurement of the GP IIb/IIIa antagonistic activity was carried out according to the method described in Pharmacological Test 2 in WO 94/21599.

Oral absorption in rats = type: in vivo; conditions: data not shown
Source text: Therefore, any of the compounds, wherein R^9 represents an alkyl group or a hydrogen atom, can be used in the treatment of the above diseases.

[1] = tested on: human platelet aggregation; test: Human platelet aggregation inhibitory activity (method of Pharmacological Test 1 in WO 94/21599); type: cell-based
Description: as §1
Human platelet aggregation inhibitory activity was measured for the compounds according to the present invention. The measurement of the human platelet aggregation activity was carried out according to the method described in Pharmacological Test 1 in WO 94/21599.

mice = test: Acute toxicity test, intravenous administration to mice; type: in vivo; conditions: 12.5 mg/kg
Source text: The compound of Example 3 was intravenously administered to mice.

[2] = target: T1, integrin αvβ3 (vitronectin receptor purified from the human placenta) (Homo sapiens, UniProt P05106+P06756); test: αvβ3 binding assay (vitronectin-vitronectin receptor binding assay); conditions: vitronectin receptor from human placenta; read-out: IC50, inhibition of binding between vitronectin and vitronectin receptor (αvβ3 binding inhibitory activity)
T1 construct: a vitronectin receptor (protein content: 118 μg/ml) purified from the human placenta; from tissue; host or cells: human placenta
T1 sequence (P06756 31-889 limits assumed): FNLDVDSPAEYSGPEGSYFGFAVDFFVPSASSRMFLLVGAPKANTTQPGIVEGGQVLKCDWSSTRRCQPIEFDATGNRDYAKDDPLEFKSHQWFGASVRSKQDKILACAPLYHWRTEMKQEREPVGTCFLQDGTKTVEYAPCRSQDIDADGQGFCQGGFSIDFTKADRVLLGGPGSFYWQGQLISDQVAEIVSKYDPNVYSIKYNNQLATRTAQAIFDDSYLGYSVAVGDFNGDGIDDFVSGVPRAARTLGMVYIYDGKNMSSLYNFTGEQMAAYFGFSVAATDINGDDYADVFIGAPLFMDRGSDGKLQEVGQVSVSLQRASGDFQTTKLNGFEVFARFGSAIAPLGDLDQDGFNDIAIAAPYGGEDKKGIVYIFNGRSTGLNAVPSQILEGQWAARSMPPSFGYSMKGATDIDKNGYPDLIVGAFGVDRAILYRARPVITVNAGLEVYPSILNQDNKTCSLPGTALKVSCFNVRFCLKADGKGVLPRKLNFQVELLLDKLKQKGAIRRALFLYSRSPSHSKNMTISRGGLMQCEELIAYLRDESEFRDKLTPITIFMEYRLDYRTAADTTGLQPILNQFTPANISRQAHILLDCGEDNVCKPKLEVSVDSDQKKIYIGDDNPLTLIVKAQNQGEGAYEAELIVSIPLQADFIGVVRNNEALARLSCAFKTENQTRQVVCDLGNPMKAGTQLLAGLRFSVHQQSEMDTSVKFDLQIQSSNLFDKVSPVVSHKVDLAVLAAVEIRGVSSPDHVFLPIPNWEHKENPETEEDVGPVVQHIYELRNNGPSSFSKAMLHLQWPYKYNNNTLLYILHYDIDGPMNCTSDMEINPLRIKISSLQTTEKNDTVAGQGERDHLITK
T1 sequence (P06756 891-1048 partner limits assumed): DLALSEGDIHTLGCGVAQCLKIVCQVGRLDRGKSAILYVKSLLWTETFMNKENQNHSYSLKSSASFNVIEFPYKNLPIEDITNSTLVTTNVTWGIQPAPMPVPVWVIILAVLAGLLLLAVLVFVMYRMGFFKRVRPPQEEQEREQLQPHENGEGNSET
T1 sequence (P05106 27-788): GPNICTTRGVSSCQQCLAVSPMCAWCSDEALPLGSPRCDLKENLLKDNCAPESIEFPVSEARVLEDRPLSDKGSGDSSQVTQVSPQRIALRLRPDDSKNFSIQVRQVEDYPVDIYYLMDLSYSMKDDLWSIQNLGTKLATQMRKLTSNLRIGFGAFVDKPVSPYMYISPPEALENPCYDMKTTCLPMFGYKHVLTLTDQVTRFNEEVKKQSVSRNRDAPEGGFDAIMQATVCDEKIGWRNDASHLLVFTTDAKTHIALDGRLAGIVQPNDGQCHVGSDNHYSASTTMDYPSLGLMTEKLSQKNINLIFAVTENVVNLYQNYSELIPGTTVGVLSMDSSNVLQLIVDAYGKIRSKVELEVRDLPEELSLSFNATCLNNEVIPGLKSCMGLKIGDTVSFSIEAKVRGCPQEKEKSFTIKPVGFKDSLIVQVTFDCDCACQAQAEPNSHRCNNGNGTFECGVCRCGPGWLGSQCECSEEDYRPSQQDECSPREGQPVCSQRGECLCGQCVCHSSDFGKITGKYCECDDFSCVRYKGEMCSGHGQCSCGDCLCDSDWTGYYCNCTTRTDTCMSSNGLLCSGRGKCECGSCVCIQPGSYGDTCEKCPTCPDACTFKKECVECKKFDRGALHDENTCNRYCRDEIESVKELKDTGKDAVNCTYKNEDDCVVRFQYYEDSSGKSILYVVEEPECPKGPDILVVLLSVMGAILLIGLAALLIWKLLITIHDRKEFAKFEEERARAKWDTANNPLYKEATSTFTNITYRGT
Description: Integrin αvβ3 antagonistic activity was measured for the compounds according to the present invention in a vitronectin-vitronectin receptor binding assay system in accordance with the method of Kouns et al. (W. C. Kouns, D. Kirchhofer, P. Hadvary, A. Edenhofer, T. Weller, G. Pfenninger, H. R. Baumgartner, L. K. Jennings and B. Steiner, Blood, 8, 2539-2547 (1992)).
Specifically, a vitronectin receptor (protein content: 118 μg/ml) purified from the human placenta in accordance with the method of Pytela et al. (R. Pytela, M. D. Pierschbacher, S. Argraves, S. Suzuki, and E. Ruoslahti, Method in Enzymology, 144, 475-489 (1987)) was diluted 50 times with TBS (20 mM Tris-HCl, 150 mM NaCl, 1 mM CaCl2, 1 mM MgCl2, pH 7.4), and distributed and coated on wells (50 μl/well) of a plate (Maxisorp, Nunc, 96 well Immuno Plate). The plate was then allowed to stand at 4° C. for 1 day, washed twice with TBS (200 μl/well), and then subjected to blocking with TBS (150 μl/well) containing 1% bovine serum albumin (SIGMA) at 4° C. overnight. After washing twice with TBS (200 μl/well), 50 μl of vitronectin (CALBIOCHEM) adjusted to 0.2 μg/ml by the addition of TBS (TBS-Tween) containing 0.01% Tween-20 was mixed with 50 μl of each test compound adjusted to each concentration in wells, and a reaction was allowed to proceed at room temperature for 4 hr. After the completion of the reaction, the wells were washed five times with TBS-Tween. A solution prepared by diluting anti-vitronectin rabbit antiserum (CHEMICON) 500 times with TBS-Tween was added as a primary antibody in an amount of 50 μl per well, and a reaction was allowed to proceed at room temperature for 1.5 hr. After washing five times with 200 μl/well of TBS-Tween, a peroxidase (POD)-labeled anti-rabbit IgG antibody solution (CAPPEL) diluted 500 times with TBS-Tween was added as a secondary antibody in an amount of 50 μl/well, and a reaction was allowed to proceed at room temperature for 1.5 hr. After washing five times with TBS-Tween (200 μl /well), ABTS (2,2′-azino-bis(3-ethylbenzthiazoline-6-sulfonic acid), SIGMA) was adjusted to 1 mg/ml by the addition of a ten-fold diluted POD-buffer (ZYMED), and added in an amount of 50 μl/well, and a reaction was allowed to proceed for 5 to 10 min. A 0.1 M citric acid buffer (pH 4.3) containing 0.05% NaN3 was added in an amount of 50 μl/well to stop the reaction, followed by the measurement of the absorbance at 415 nm with a microplate reader (MTP 32, Corona Electric) (reference: 675 nm). The total binding was defined as the absorbance after a reaction using 50 μl of TBS-Tween instead of the test compound, and the non-specific binding (100% inhibition) was defined as the absorbance after a reaction using 50 μl of TBS-Tween containing 2×10^−3 M RGDS. The inhibition was calculated by the following equation: [formula]
IC50 was determined from a primary regression line of the logarithm of each concentration of the test compound and the logarithm of (100−inhibition)/inhibition.

[3] = tested on: human vascular smooth muscle cells; test: Inhibition of adhesion of human vascular smooth muscle cells to immobilized human vitronectin; type: cell-based; conditions: read-out: IC50, inhibitory activity against the adhesion of human vascular smooth muscle cells to vitronectin
Description: Inhibitory Activity Against Adhesion of Human Vascular Smooth Muscle Cells to Vitronectin
The adhesion of human vascular smooth muscle cells to immobilized human vitronectin was measured in accordance with the method of Liaw et al. (Liaw L, Almeida M, Hart C E, Schwartz S M, and Giachelli C M, Circulation Research, 74 (2), 214-224 (1994)).
A Dulbecco's phosphate buffer (Dulbecco's PBS(−), Nissui Pharmaceutical Co., Ltd.) solution of human plasma-derived vitronectin (CALBIOCHEM) adjusted to a concentration of 4 μg/ml was first added to wells (50 μl/well) of a microplate (Maxisorp, Nunc), and a reaction for immobilization was allowed to proceed at 4° C. overnight. […]
Next, 50 μl of a Dulbecco's modified Eagle's basal medium containing 10 mg/ml of bovine serum albumin with a medicament added thereto was added to the wells of the human vitronectin-coated assay microplate, followed by pre-cultivation under 5% carbon dioxide at 37° C. for 10 min. […] The absorbance of the microplate thus obtained was measured at 595 nm. […] The inhibition was calculated by the following equation. IC50 was determined from a primary regression line of the logarithm of each concentration of the test compound and the logarithm of (100−inhibition)/inhibition. […]

Chain of GP IIb/IIIa (P08514 32-887 limits assumed): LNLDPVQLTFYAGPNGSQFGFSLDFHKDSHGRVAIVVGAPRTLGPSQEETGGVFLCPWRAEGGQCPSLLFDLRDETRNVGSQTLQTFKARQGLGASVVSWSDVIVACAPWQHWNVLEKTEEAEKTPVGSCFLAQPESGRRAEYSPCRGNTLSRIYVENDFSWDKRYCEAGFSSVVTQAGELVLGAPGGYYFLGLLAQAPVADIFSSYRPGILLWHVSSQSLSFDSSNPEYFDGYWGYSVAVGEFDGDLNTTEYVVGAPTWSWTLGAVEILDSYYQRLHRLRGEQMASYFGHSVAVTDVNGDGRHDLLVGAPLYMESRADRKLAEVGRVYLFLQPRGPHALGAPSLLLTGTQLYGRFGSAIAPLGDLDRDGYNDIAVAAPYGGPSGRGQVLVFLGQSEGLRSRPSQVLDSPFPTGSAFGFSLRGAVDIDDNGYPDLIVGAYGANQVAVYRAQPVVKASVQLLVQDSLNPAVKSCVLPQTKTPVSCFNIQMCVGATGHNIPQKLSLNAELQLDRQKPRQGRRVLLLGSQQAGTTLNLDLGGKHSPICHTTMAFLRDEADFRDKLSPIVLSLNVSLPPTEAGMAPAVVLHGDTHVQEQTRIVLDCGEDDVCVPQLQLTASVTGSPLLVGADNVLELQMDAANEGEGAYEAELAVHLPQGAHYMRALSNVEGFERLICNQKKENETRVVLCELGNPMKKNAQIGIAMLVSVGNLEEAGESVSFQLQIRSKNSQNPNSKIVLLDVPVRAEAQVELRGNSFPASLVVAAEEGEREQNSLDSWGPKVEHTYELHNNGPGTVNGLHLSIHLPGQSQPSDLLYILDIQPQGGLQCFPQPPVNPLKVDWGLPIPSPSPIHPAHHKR
Chain of GP IIb/IIIa (P08514 891-1039 partner limits assumed): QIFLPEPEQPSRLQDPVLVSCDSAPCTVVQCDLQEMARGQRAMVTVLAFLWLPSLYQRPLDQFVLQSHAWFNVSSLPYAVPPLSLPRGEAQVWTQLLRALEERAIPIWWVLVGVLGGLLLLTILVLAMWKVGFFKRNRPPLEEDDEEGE
Chain of GP IIb/IIIa (P05106 27-788): as the sequence (P05106 27-788) above

IC50 [2]	IC50 [3]	Structure (SMILES)	GP IIb/IIIa antagonistic activity (in words) (GP IIb/IIIa)	oral absorption (Oral absorption in rats)	human platelet aggregation inhibition (in words) [1]	IC50 ([1]; read-out: IC50, human platelet aggregation inhibition)	acute toxicity, symptoms (mice)
		O=C(NC[C@H](NS(=O)(=O)c1ccccc1)C(=O)O)c1ccc(N2CCN(C3=NCCCN3)CC2)cc1 [Example 3, (2S)-Benzenesulfonylamino-3-[4-{4-(1,4,5,6-tetrahydropyrimidin-2-yl)-piperazin-1-yl}-benzoylamino]-propionic acid]	extremely high GP IIb/IIIa antagonistic activity	excellent oral absorption	very strongly inhibited human platelet aggregation	34 nM	no special symptom was developed
31 nM	750 nM	O=C(N[C@@H](CNC(=O)c1ccc(N2CCN(C3=NCCCN3)CC2)cc1)C(=O)O)OCc1ccccc1 [Example 30, (2S)-Benzyloxycarbonylamino-3-[4-{4-(1,4,5,6-tetrahydropyrimidin-2-yl)-piperazin-1-yl}-benzoylamino]-propionic Acid]					
